# Measurements reported in US20120121554A1, “HMG-COA SECONDARY METABOLITES AND USES THEREOF” (EDENSPACE SYSTEMS CORPORATION, priority 2009, published 2012).
# Assays:
# [1] = target: T1, HMG-CoA reductase (Rattus norvegicus, UniProt P51639); settings: compound at 10^−3 M; cited from earlier work
# T1 sequence (P51639 1-887): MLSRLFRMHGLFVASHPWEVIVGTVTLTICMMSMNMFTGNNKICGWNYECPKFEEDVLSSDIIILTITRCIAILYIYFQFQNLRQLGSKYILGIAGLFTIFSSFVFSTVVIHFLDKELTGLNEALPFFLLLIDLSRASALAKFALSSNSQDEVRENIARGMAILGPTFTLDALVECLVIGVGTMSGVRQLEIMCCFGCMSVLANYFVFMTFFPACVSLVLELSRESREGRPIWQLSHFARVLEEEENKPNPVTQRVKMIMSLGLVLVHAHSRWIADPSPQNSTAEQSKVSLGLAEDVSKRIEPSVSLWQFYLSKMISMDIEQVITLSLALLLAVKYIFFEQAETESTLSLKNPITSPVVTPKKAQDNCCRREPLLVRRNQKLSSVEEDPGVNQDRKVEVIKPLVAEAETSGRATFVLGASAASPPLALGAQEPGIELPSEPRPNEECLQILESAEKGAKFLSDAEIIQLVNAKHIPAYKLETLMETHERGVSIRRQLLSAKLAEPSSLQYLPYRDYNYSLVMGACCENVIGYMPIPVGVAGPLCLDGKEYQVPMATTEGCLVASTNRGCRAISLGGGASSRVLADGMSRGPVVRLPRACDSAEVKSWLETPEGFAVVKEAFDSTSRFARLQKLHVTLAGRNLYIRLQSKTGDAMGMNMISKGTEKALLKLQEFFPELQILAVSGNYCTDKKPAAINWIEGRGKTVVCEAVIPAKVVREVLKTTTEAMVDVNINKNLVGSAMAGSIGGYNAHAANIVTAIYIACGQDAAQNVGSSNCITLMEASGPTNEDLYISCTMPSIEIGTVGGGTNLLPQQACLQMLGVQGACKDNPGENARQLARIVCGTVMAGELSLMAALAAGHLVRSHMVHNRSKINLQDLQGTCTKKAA
# [2] = tested on: Experimental autoimmune encephalomyelitis (EAE) in SJL/J mice; test: EAE mouse model, clinical assessment (day of onset); assay type: in vivo
# Experimental: To induce EAE, five-to-seven week old SJL/J (H-2S) female mice (Charles River; Wilmington, Mass.) were immunized subcutaneously with 200 μg PLP139-151 in a 0.2 mL emulsion comprised of equal volumes of phosphate-buffered saline (PBS) and complete Freund's adjuvant (CFA) containing killed Mycobacterium Tuberculosis strain H37RA (at a final concentration of 4 mg/ml, Difco, Detroit, Mich.). PLP139-151/CFA was administered to regions above the shoulder and the flanks (4 sites total; 50 μL at each injection site). In addition, 200 ng of pertussis toxin (List Biological Laboratories, Campbell, Calif.) was injected intraperitoneally on the day of immunization and 2 days post immunization.
# Mice received intravenous injections of vehicle (PBS), HMG (25 μmol/mouse), or PLP-BPI (100 nmol/mouse) on days 4, 7, and 10 (n=6 per treatment group).
# [3] = tested on: serum cytokines and chemokines; test: Serum cytokine and chemokine levels in EAE mice (multiplex ELISA array); assay type: in vivo, mouse
# Experimental: FIG. 7 depicts serum levels of cytokines and chemokines in various treatment groups (PBS only control, PLP-BPI-treated, and HMG-treated) 14 days after immunization with PLP139-151/CFA to induce EAE. Data represent the mean±standard deviation. Statistical significance was determined by one way Analysis of Variance followed by post-hoc testing using the Tukey test.
# Blood samples were collected from the facial vein in PBS-, HMG-, and PLP-BPI-treated mice on day 14 and day 28 (n=3 per group). Blood samples were allowed to clot overnight at 2-8° C. before centrifuging for 10 min at 2000×g. Serum was removed and stored at −80° C. until measurement of cytokines and chemokines was performed by a commercial analytical services laboratory.
# The levels of key cytokines and chemokines were measured by multiplex ELISA array by a commercial analytical laboratory.
SMILES,in vitro inhibition of HMGR @10^−3 M [1],"Disease phenotype as compared to vehicle only ([2]; EAE mice, i.v. on days 4, 7, 10)","Delay of average day of onset of EAE as compared to PBS treated mice ([2]; SJL/J mice, HMG 25 μmol/mouse i.v. on days 4, 7, 10)","Day of onset of EAE (day when EAE clinical score is one or more) ([2]; SJL/J mice, i.v. on days 4, 7, 10, HMG 25 μmol/mouse, PLP-BPI 100 nmol/mouse, PBS group day 11)","Serum RANTES level ([3]; day 14, compared to PBS group)","Serum IFN gamma concentration ([3]; day 14, compared to PBS- or PLP-BPI-treated mice)","Serum IL-17 level ([3]; day 14, compared to PLP-BPI-treated animals)","Inflammation as measured by levels of some cytokines ([3]; day 14, versus PBS only)","Serum IL-1 alpha level ([3]; day 14 after immunization, compared to PBS group)"
CCCCCCCCCCCCCCCC(O)(CC(=O)O)CC(=O)O [3j],99,,,,,,,,
CCCCCCCCCCCCCCCCCCCC(O)(CC(=O)O)CC(=O)O [3m],86,,,,,,,,
"CC(O)(CC(=O)O)CC(=O)O [HMG, 3-hydroxy-3-methylglutaric acid]",,ameliorated disease phenotype,about 2 days,13 days,statistically significant reductions,much lower,significantly lower,reduced inflammation,statistically significant reductions
